Assay results from patent US20130338574A1, “ORAL MEDICINAL COMPOSITION FOR PATIENTS UNDERGOING PERITONEAL DIALYSIS AND METHOD FOR USING SAME” (TOKAI UNIVERSITY EDUCATIONAL SYSTEM, priority 2010, published 2013).

Tested on: dicarbonyl compounds (3-deoxyglucosone) in the intraperitoneal fluid
Experiment: 3-deoxyglucosone in intraperitoneal fluid of uremic rat models, neutral peritoneal dialysis fluid (Experimental Example 3)
Type: in vivo, rats
Details: oral 30 mg/rat/day, 7 days
Excerpt: Kidney subtotal excision rats with chronic renal failure (uremic rat models) were produced in the same manner as in Experimental Example 2. Distilled water for injection was orally administered compulsorily to Group 1 (control group) (n=3) once a day, and the pyridoxamine salt aqueous solution was orally administered compulsorily to Group 2 (pyridoxamine salt orally administered group) once a day. On the 6th day of administration, after distilled water for injection and the pyridoxamine salt aqueous solution were orally administered, respectively, to Groups 1 and 2, 20 ml of a neutral peritoneal dialysis fluid (pH 6.5 to 7.5) to be mixed before use (trade name: Dianeal (registered trademark)-N PD-4-1.5 mixture; Baxter Limited) (Table 1) was injected intraperitoneally to both groups, in place of the acid peritoneal dialysis fluid administered in Experimental Example 2. As explained in Experimental Example 1, the peritoneal dialysis fluid was composed of an upper-compartment solution and a lower-compartment solution separated by a partition, and both solutions were mixed immediately before being injected into the peritoneal cavity. […] The concentration of dicarbonyl compounds (3-deoxyglucosone) in the intraperitoneal fluid of each group was measured by HPLC in the same manner as in Experimental Example 2.

## Cc1ncc(CO)c(CN)c1O.Cl.Cl [pyridoxamine dihydrochloride, Pyridoxamine dihydrochloride]
Neutral peritoneal dialysis fluid
  3-deoxyglucosone concentration in the peritoneal cavity relative to control group: less than one-half
Neutral peritoneal dialysis fluid (pH 6.5 to 7.5) Dianeal-N PD-4-1.5 mixture, 20 ml i.p., control group 23.4
  3-deoxyglucosone concentration in intraperitoneal fluid: 10.3 µg/mL
